Results reported in patent US12459951B2, “Compounds that interact with RAS superfamily proteins for treatment of cancers, inflammatory diseases, rasopathies, and fibrotic disease” (SHY Therapeutics, LLC, priority 2022, dated 2025).

Assays:
IL6 = assay: IL-6 Quantification Assay (ELISA), LPS-stimulated RAW 264.7; assay type: cell-based; design: inhibition: dose or concentration left out as unconfirmed; conditions: Mus musculus, RAW264.7; read-out: IL-6: % inh.
Rac-1 = biological target: T1, Rac-1 (Homo sapiens, UniProt P63000); assay: Ras GTP Binding Domain Inhibition Assay (Ras Superfamily Assay); conditions: read-out: Rac-1: % inh.
T1 construct: made in house
In short: (§1)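 Binding of 100 nM fluorescent GTP (Cy3 or Cy5, 45 min, room temperature) was read after washes from plate-captured His-tagged protein. Beforehand, compounds at 20 μM or in dilution series for IC50 sat 3 h on the protein in Tris buffer pH 7.4 or 7.0 with 1% DMSO, Sos GEF optionally added for the last hour.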

KRas wild type = assay: as above; conditions: 20 μM compound
In short: as §1

KRas G12D mutant = assay: as above; conditions: 20 μM compound
In short: as §1

Akt phosphorylation = assay: Akt Phosphorylation Assay (western blot), Panc-1; assay type: cell-based, human; conditions: at 10 μM, * = activation
In short: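 Phospho-Akt (Ser473) was measured by western blot in lysates of KRas G12D Panc-1 cells exposed to test compound for 6 h at 37 °C, either at 10 μM final with 0.3% DMSO or as serial dilutions for IC50. One format used overnight 0.5% FBS starvation followed by a 15 min pulse of 1.5 ng/ml EGF. The other used cells in 10% FBS with no stimulation.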

TNF-alpha = TNF-alpha Quantification Assay (ELISA), LPS-stimulated RAW 264.7; assay type: cell-based; conditions: Mus musculus, RAW264.7; at 10 μM; read-out: TNFα: % inh.

COc1cc(Nc2nc(-c3nccn3C)nn3cc(-c4ccn(C(C)C)n4)c(C)c23)ccn1 [Compound 87, 6-(1-Isopropyl-1H-pyrazol-3-yl)-N-(2-methoxypyridin-4-yl)-5-methyl-2-(1-methyl-1H-imidazol-2-yl)pyrrolo[2,1-f][1,2,4]triazin-4-amine]
inhibition (IL6): 0% | inhibition at 20 µM (Rac-1): 0% | KRas wild type + SOS: % inh. (KRas wild type; with SOS): 0 (0 = 0% inhibition) | KRas wild type: % inh. (KRas wild type; without SOS): 0 (0 = 0% inhibition) | KRas G12D mutant + SOS: % inh. (KRas G12D mutant; with SOS): A (A = 1-25% inhibition) | KRas G12D mutant: % inh. (KRas G12D mutant; without SOS): A (A = 1-25% inhibition) | % inh of Akt phosphorylation in Panc-1 (Akt phosphorylation): D* (85-100% activation) | inhibition at 10 µM (TNF-alpha): 0%
